Data as given in paper PMC12307812 (Nature Communications, 2025).

How the values were obtained:
[1] = test system: SARS-CoV-2 Delta variant AY.1; assay: microbe, parasite or virus in culture; type: cell-based; conditions: for mean log10(PFU/ml): AY.1; for IC50: Severe acute respiratory syndrome coronavirus 2, Calu-3, 48 h, read-out: IC50, live SARS-CoV-2 infection AY.1 (Delta)
[2] = test system: SARS-CoV-2 Omicron variant KP.3.1.1; assay: microbe, parasite or virus in culture; type: cell-based; conditions: for mean log10(PFU/ml): KP.3.1.1; for IC50: Severe acute respiratory syndrome coronavirus 2, Calu-3, 48 h, read-out: IC50, live SARS-CoV-2 infection KP.3.1.1

In the case of `CC(C)(C)NC(=O)N1CCN(C(=O)N2C(=O)C(CCCNC(=N)N)C2C(=O)O)CC1` (stereo not drawn) [BMS-262084], the “mean log10(PFU/ml)” value ([1]; concentration 5 nM) is reported as 7.781 log10(PFU/ml), the “mean log10(PFU/ml)” value ([1]; concentration 50 nM) is reported as 5.891 log10(PFU/ml) and the “mean log10(PFU/ml)” value ([1]; concentration 500 nM) is reported as 3.176 log10(PFU/ml). The “mean log10(PFU/ml)” value ([1]; concentration 5000 nM) was 2.572 log10(PFU/ml), the “mean log10(PFU/ml)” value ([1]; concentration 50000 nM) was 2.538 log10(PFU/ml) and the IC50 [1] was 0.00866 µM. For the same molecule, the “mean log10(PFU/ml)” value ([2]; concentration 5 nM) was 7.893 log10(PFU/ml), the “mean log10(PFU/ml)” value ([2]; concentration 50 nM) was 4.129 log10(PFU/ml) and the “mean log10(PFU/ml)” value ([2]; concentration 500 nM) was 1.9 log10(PFU/ml). For the same molecule, the “mean log10(PFU/ml)” value ([2]; concentration 5000 nM) was 1.699 log10(PFU/ml), the “mean log10(PFU/ml)” value ([2]; concentration 50000 nM) was 1.498 log10(PFU/ml) and the IC50 [2] was 0.00803 µM.
With `CN(C)C(=O)COC(=O)Cc1ccc(OC(=O)c2ccc(NC(=N)N)cc2)cc1` [camostat] the “mean log10(PFU/ml)” value ([1]; concentration 5 nM) was 7.732 log10(PFU/ml), the “mean log10(PFU/ml)” value ([1]; concentration 50 nM) was 7.059 log10(PFU/ml) and the “mean log10(PFU/ml)” value ([1]; concentration 500 nM) was 6.615 log10(PFU/ml). For the same molecule, the “mean log10(PFU/ml)” value ([1]; concentration 5000 nM) was 4.492 log10(PFU/ml), the “mean log10(PFU/ml)” value ([1]; concentration 50000 nM) was 3.6181 log10(PFU/ml) and the IC50 [1] was 0.0221 µM. The “mean log10(PFU/ml)” value ([2]; concentration 5 nM) was 7.955 log10(PFU/ml), the “mean log10(PFU/ml)” value ([2]; concentration 50 nM) was 6.207 log10(PFU/ml) and the “mean log10(PFU/ml)” value ([2]; concentration 500 nM) was 5.0218 log10(PFU/ml). For the same molecule, the “mean log10(PFU/ml)” value ([2]; concentration 5000 nM) was 1.958 log10(PFU/ml), the “mean log10(PFU/ml)” value ([2]; concentration 50000 nM) was 1.699 log10(PFU/ml) and the IC50 [2] was 0.0383 µM.
